Data: patent US20100168421A1, “A NEW PEPTIDE DEFORMYLASE INHIBITOR COMPOUND AND MANUFACTURING PROCESS THEREOF” (priority 2007, published 2010)
In brackets after ≈: the same amount, converted by molar mass. Where two headings read alike, the source gives them in different places.

Columns and labels:
[1] = test system: Vancomycin-resistant Enterococcus faecalis; assay: MIC microdilution, VR E. faecalis; format: cell-based; details: read-out: MIC Vancomycin-resistant Enterococcus faecalis
Experimental: (§1) Minimum inhibitory concentrations (MICs) were determined using the microdilution method in 96-well format plates. Each of the compounds of Examples was dissolved in dimethyl sulfoxide to a concentration of 2 mg/mL and stored at 4° C. until used. They were diluted in Mueller-Hinton Broth (MHB) and used for MIC determination. The range of concentrations tested was […] final concentration using a two-fold dilution system. Plates were incubated at 37° C. and MIC were recorded after 24 hours of incubation for bacteria.
(§2) Linezolid and vancomycin were used as standard antibiotics, respectively.

[2] = test system: Vancomycin-resistant Enterococcus faecium; assay: MIC microdilution, VR E. faecium; format: cell-based; details: read-out: MIC Vancomycin-resistant Enterococcus faecium
Experimental: as §1, §2

[3] = test system: Streptococcus Pneumoniae Pen NS; assay: MIC microdilution, S. Pneumoniae Pen NS; format: cell-based; details: read-out: MIC Streptococcus Pneumoniae Pen NS
Experimental: as §1, §2

[4] = test system: Streptococcus Pneumoniae Pen S; assay: MIC microdilution, S. Pneumoniae Pen S; format: cell-based; details: read-out: MIC Streptococcus Pneumoniae Pen S
Experimental: as §1, §2

Streptococcus pyogenes = assay: MIC microdilution, S. pyogenes; format: cell-based; details: read-out: MIC Streptococcus pyogenes
Experimental: as §1, §2

[5] = Acute toxicity study in mice; details: mouse, in vivo, po, 4000 mg/kg; ICR mice, orally, observed for 14 days
Experimental: The acute toxicity of the compounds of Example 5, 17 and 22 were tested using several groups of ICR mice each of 6 mice.

PDF enzyme [6] = target: PDF enzyme (Escherichia coli, UniProt P0A6K3); assay: PDF/FDH coupled enzyme assay, E. coli; format: biochemical; details: PDF/FDH coupled assay, substrate fMAS, absorption at 340 nm; read-out: IC50 Escherichia coli
Experimental: Activities of PDF enzyme for E. coli and S. aureus were determined using PDF/FDH coupled assay. In this coupled assay, the formate released by PDF from its substrate formyl-Methionine-Alanine-Serine (fMAS) is oxidized by coupling enzyme formate dehydrogenase (FDH), reducing one molecule of NAD^+ to NADH, which is measured absorption at 340 nm.

PDF enzyme [7] = target: T1, PDF enzyme (Streptococcus pneumoniae serotype 4, UniProt Q9F2F0); assay: PDF/FDH coupled enzyme assay, Streptococcus Pneumoniae; format: biochemical; details: substrate fMAS, absorption at 340 nm
T1 sequence (Q9F2F0 1-203): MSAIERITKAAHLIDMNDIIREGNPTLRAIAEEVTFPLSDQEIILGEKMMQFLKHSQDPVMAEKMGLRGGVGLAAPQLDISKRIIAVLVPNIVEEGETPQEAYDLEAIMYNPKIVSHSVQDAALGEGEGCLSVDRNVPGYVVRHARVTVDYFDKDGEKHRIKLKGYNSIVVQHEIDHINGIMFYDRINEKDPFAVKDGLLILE

PDF enzyme [8] = target: PDF enzyme (Streptococcus pyogenes serotype M1, UniProt P68771); assay: PDF/FDH coupled enzyme assay, Streptococcus pyogenes; format: biochemical; details: PDF/FDH coupled assay, substrate fMAS, absorption at 340 nm; read-out: IC50 Streptococcus pyogenes
[9] = microdilution, Mueller-Hinton Broth, 37° C., 24 hours

Chain of PDF enzyme (Streptococcus pyogenes serotype M1, UniProt P68771) (P68771 whole entry): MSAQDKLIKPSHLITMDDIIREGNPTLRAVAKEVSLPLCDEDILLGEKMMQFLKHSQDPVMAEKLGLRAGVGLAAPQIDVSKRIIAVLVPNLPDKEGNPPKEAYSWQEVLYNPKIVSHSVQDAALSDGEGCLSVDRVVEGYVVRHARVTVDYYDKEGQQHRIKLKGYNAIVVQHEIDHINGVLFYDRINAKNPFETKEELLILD
Chain of PDF enzyme (Escherichia coli, UniProt P0A6K3) (P0A6K3 whole entry): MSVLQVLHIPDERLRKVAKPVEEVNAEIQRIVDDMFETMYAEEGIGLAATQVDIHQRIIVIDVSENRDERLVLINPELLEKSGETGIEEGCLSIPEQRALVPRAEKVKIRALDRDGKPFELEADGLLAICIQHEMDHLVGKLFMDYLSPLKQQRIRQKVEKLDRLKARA

Row | Compound | MIC ([1]; 24 h) [µg/mL] | MIC ([2]; 24 h) [µg/mL] | MIC ([3]; 24 h) [µg/mL] | MIC ([4]; 24 h) [µg/mL] | MIC (Streptococcus pyogenes; 24 h) [µg/mL] | LD50 at 14 days [5] [mg/kg] | IC50 (PDF enzyme [6]) [nM] | IC50 (PDF enzyme [7]) [nM] | IC50 (PDF enzyme [8]) [nM] | MIC [1, 9] [µg/mL] | MIC [2, 9] [µg/mL] | MIC [3, 9] [µg/mL] | MIC [4, 9] [µg/mL] | MIC (Streptococcus pyogenes; [9]) [µg/mL]
1 | CC(C)(C)[C@H](NC(=O)[C@H](CC1CCCC1)CN(O)C=O)C(=O)N1CCC(Nc2ccc(F)cc2)CC1 [Example 17, (R)-2-Cyclopentylmethyl-N-{(S)-1-[4-(4-fluoro-phenylamino)-piperidine-1-carbonyl]-2,2-dimethyl-propyl}-3-(formyl-hydroxy-amino)-propionamide] | 3.1 (≈ 6.14 µM) | 0.4 (≈ 0.793 µM) | 0.8 (≈ 1.59 µM) | 0.2 (≈ 0.396 µM) | 0.2 (≈ 0.396 µM) | > 2000 | – | – | – | – | – | – | – | –
2 | CN(c1ccccc1)C1CCN(C(=O)[C@@H](NC(=O)[C@H](CC2CCCC2)CN(O)C=O)C(C)(C)C)CC1 [Example 22, (R)-2-Cyclopentylmethyl-N-{(S)-2,2-dimethyl-1-[4-(methyl-phenyl-amino)-piperidine-1-carbonyl]-propyl}-3-(formyl-hydroxy-amino)-propionamide] | – | – | – | – | – | > 2000 | 113 | 25 | 42 | 3.1 (≈ 6.19 µM) | 0.2 (≈ 0.399 µM) | 0.2 (≈ 0.399 µM) | 0.05 (≈ 0.0999 µM) | 0.05 (≈ 0.0999 µM)
